Reference: the kinase profiling compilation of Christmann-Franck et al. (2016)

Experiments:
Assay in all cases: radiometric filter-binding kinase assay
[1] = target: CSNK1D (human) (UniProt P48730)
[2] = target: MAP3K7 TAB1 (human) (UniProt Q15750+O43318); conditions: compound 10.0 µM
[3] = target: MAPK14 (human) (UniProt Q16539)
[4] = target: YES1 (human) (UniProt P07947); conditions: compound 10.0 µM
[5] = target: MAPK9 (human) (UniProt P45984)
[6] = target: IGF1R (human) (UniProt P08069); conditions: compound 10.0 µM
[7] = target: PAK4 (human) (UniProt O96013)
Chain of PAK4 (human) (O96013 whole entry, looked up): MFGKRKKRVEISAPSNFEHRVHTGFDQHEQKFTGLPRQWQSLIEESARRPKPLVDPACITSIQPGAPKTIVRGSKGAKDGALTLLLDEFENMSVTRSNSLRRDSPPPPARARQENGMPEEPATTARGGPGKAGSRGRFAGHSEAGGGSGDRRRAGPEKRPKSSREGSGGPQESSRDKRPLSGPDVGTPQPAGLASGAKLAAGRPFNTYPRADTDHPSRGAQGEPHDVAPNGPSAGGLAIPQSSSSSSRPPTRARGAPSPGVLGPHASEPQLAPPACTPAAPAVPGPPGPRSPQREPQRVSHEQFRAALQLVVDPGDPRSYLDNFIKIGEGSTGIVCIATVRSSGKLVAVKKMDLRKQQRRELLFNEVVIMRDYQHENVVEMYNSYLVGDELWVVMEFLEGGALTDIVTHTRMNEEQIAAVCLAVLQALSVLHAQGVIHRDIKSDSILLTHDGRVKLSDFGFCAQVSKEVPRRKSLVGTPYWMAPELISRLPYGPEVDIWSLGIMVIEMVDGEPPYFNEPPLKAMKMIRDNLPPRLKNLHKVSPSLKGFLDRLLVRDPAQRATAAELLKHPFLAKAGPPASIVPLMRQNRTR

[8] = target: MAPKAPK2 (human) (UniProt P49137)
Chain of MAPKAPK2 (human) (P49137 whole entry, looked up): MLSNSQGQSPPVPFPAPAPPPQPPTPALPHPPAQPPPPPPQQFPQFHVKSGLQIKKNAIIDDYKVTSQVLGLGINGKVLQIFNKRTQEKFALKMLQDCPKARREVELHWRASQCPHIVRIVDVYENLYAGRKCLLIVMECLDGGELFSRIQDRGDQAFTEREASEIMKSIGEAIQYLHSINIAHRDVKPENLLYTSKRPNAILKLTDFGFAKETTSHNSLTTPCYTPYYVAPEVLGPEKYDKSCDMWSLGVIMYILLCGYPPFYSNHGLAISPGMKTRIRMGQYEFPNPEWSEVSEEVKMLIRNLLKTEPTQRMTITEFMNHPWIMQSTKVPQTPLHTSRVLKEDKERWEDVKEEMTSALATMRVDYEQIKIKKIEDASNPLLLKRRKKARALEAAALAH

[9] = target: IKBKB (human) (UniProt O14920)
[10] = target: MINK1 (human) (UniProt Q8N4C8); conditions: compound 10.0 µM
[11] = target: PIM1 (human) (UniProt P11309)
Chain of PIM1 (human) (P11309 whole entry, looked up): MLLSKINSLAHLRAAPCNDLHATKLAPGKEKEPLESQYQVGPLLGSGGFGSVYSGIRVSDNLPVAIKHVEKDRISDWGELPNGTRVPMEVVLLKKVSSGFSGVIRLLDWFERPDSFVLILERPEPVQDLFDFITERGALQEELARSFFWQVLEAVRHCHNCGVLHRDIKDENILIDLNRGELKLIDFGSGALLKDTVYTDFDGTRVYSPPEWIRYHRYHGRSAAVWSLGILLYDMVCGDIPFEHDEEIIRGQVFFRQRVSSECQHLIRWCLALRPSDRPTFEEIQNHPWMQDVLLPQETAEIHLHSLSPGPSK

[12] = target: MKNK2 (human) (UniProt Q9HBH9)
[13] = target: MAPKAPK5 (human) (UniProt Q8IW41)
Chain of MAPKAPK5 (human) (Q8IW41 whole entry, looked up): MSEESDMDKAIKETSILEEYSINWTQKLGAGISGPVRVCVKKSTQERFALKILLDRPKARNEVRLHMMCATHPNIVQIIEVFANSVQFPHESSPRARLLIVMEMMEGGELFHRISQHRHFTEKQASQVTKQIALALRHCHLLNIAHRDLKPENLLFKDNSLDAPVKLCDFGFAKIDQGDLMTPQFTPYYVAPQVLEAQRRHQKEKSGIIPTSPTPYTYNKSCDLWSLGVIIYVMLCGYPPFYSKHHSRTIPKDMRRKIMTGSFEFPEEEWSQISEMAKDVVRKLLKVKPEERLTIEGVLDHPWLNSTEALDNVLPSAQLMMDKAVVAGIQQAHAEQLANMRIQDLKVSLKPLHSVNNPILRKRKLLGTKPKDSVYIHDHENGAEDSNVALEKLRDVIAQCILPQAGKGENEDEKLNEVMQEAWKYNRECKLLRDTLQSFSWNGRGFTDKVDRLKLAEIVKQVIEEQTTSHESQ

[14] = target: CAMKK2 (human) (UniProt Q96RR4)
Chain of CAMKK2 (human) (Q96RR4 whole entry, looked up): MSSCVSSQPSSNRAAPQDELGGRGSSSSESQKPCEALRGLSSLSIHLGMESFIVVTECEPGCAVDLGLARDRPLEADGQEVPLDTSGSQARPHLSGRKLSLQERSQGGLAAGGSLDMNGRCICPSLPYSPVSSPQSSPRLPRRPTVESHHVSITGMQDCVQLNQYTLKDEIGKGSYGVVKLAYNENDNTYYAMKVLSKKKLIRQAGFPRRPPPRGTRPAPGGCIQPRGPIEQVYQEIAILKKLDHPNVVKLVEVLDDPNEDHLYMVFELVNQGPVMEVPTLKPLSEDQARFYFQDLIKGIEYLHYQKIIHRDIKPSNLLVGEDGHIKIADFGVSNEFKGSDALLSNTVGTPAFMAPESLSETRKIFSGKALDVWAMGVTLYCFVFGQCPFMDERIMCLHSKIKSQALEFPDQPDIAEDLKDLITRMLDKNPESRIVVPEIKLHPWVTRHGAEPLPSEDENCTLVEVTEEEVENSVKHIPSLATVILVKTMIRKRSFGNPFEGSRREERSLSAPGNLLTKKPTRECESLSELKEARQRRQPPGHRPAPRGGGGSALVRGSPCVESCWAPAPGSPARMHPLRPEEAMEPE

[15] = target: RIPK2 (human) (UniProt O43353); conditions: compound 10.0 µM
[16] = target: AURKB (human) (UniProt Q96GD4)
[17] = target: MELK (human) (UniProt Q14680)
Chain of MELK (human) (Q14680 whole entry, looked up): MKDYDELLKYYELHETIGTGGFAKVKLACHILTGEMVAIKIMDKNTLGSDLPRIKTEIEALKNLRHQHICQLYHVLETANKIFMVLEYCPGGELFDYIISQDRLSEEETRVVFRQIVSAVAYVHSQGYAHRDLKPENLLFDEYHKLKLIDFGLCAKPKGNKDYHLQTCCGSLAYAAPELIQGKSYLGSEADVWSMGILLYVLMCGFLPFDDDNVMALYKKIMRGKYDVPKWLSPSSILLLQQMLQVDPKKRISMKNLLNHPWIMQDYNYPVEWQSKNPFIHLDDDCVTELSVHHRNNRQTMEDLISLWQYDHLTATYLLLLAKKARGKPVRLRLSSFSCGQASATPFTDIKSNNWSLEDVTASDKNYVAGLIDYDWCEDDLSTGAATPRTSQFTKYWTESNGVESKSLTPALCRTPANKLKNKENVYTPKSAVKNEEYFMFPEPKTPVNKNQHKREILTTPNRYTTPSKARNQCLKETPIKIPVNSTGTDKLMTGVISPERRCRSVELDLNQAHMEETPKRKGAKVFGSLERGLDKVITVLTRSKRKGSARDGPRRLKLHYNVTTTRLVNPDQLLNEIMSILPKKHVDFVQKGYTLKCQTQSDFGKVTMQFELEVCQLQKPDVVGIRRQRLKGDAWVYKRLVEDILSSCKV

[18] = target: MAPK8 (human) (UniProt P45983)
[19] = target: EPHB2 (human) (UniProt P29323); conditions: compound 10.0 µM
[20] = target: BTK (human) (UniProt Q06187); conditions: compound 10.0 µM
[21] = target: PRKACA (human) (UniProt P17612)
[22] = target: PAK7 (human) (UniProt Q9P286)
[23] = target: EPHA4 (human) (UniProt P54764); conditions: compound 10.0 µM
[24] = target: HIPK2 (human) (UniProt Q9H2X6)
[25] = target: MAPK12 (human) (UniProt P53778)
[26] = target: MAP3K11 (human) (UniProt Q16584); conditions: compound 10.0 µM
[27] = target: MAPK15 (human) (UniProt Q8TD08)
[28] = target: MAP2K2 (human) (UniProt P36507); conditions: compound 10.0 µM
[29] = target: DYRK2 (human) (UniProt Q92630)
Chain of DYRK2 (human) (Q92630 whole entry, looked up): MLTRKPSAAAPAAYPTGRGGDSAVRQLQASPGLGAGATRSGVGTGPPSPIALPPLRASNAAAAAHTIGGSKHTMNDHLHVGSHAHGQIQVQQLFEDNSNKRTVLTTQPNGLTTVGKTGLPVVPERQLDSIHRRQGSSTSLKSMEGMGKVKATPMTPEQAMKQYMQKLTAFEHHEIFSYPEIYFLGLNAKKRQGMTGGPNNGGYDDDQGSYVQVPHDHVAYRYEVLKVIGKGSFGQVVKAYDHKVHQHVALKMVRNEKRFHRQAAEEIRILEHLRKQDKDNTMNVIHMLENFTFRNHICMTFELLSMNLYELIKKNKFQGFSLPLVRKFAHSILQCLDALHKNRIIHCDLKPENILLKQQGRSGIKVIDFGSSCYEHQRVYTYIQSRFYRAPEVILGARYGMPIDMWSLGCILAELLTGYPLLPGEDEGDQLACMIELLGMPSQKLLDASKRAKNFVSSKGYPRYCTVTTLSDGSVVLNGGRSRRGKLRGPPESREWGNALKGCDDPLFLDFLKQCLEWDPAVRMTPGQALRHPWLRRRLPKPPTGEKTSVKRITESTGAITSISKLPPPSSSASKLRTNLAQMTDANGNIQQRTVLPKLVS

[30] = target: CSK (human) (UniProt P41240)
Chain of CSK (human) (P41240 whole entry, looked up): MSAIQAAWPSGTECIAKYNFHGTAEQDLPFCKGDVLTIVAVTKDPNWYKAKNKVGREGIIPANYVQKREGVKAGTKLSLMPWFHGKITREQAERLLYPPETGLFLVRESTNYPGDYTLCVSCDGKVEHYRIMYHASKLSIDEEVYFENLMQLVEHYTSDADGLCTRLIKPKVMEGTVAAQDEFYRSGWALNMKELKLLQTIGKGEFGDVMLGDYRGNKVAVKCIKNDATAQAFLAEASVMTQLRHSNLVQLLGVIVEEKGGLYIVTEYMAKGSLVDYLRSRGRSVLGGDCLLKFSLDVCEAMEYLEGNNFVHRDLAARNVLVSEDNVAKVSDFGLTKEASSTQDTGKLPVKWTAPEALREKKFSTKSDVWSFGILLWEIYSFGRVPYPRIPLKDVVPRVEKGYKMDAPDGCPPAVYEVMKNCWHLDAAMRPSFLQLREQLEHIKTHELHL

[31] = target: EPHB3 (human) (UniProt P54753); conditions: compound 10.0 µM
[32] = target: BRSK1 (human) (UniProt Q8TDC3); conditions: compound 10.0 µM
[33] = target: DYRK1A (human) (UniProt Q13627)
[34] = target: IKBKE (human) (UniProt Q14164); conditions: compound 10.0 µM
[35] = target: CaMK1 (human) (UniProt Q14012)
Chain of CaMK1 (human) (Q14012 whole entry, looked up): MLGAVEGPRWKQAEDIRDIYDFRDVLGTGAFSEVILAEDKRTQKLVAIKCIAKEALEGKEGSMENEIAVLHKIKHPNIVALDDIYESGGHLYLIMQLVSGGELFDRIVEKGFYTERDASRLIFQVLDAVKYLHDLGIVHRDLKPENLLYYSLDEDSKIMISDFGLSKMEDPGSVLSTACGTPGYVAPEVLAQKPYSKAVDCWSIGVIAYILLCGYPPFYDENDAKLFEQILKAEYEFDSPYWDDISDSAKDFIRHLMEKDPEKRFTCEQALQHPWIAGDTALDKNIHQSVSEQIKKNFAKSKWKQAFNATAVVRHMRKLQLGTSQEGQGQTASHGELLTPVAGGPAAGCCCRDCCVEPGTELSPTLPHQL

Chain of MAPK14 (human) (Q16539 whole entry, looked up): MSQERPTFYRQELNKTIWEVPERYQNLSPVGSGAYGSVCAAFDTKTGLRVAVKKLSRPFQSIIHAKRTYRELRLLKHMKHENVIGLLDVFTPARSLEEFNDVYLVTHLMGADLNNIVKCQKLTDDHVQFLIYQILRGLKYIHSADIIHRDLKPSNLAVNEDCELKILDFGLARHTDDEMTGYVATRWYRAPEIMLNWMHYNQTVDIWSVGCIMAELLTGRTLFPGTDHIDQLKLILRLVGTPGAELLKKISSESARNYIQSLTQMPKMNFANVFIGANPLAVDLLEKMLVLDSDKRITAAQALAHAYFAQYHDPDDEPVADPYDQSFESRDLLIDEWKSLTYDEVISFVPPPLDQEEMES

Oc1ccc(/C=C/c2cc(O)cc(O)c2)cc1
residual activity ([1]; compound 1.0 µM): 84% | residual activity ([1]; compound 10.0 µM): 94% | residual activity ([1]; compound 50.0 µM): 46% | residual activity [2]: 83% | residual activity ([3]; compound 1.0 µM): 95% | residual activity ([3]; compound 10.0 µM): 97% | residual activity ([3]; compound 50.0 µM): 75% | residual activity [4]: 77% | residual activity ([5]; compound 1.0 µM): 95% | residual activity ([5]; compound 10.0 µM): 86% | residual activity ([5]; compound 50.0 µM): 103% | residual activity [6]: 59% | residual activity ([7]; compound 1.0 µM): 85% | residual activity ([7]; compound 10.0 µM): 80% | residual activity ([7]; compound 50.0 µM): 67% | residual activity ([8]; compound 1.0 µM): 118% | residual activity ([8]; compound 10.0 µM): 88% | residual activity ([8]; compound 50.0 µM): 71% | residual activity ([9]; compound 1.0 µM): 99% | residual activity ([9]; compound 10.0 µM): 70% | residual activity ([9]; compound 50.0 µM): 46% | residual activity [10]: 66% | residual activity ([11]; compound 1.0 µM): 50% | residual activity ([11]; compound 10.0 µM): 30% | residual activity ([11]; compound 50.0 µM): 4% | residual activity ([12]; compound 1.0 µM): 74% | residual activity ([12]; compound 10.0 µM): 96% | residual activity ([12]; compound 50.0 µM): 34% | residual activity ([13]; compound 1.0 µM): 105% | residual activity ([13]; compound 10.0 µM): 85% | residual activity ([13]; compound 50.0 µM): 56% | residual activity ([14]; compound 1.0 µM): 107% | residual activity ([14]; compound 10.0 µM): 74% | residual activity ([14]; compound 50.0 µM): 28% | residual activity [15]: 51% | residual activity ([16]; compound 1.0 µM): 97% | residual activity ([16]; compound 10.0 µM): 62% | residual activity ([16]; compound 50.0 µM): 22% | residual activity ([17]; compound 1.0 µM): 49% | residual activity ([17]; compound 10.0 µM): 50% | residual activity ([17]; compound 50.0 µM): 8% | residual activity ([18]; compound 1.0 µM): 96% | residual activity ([18]; compound 10.0 µM): 108% | residual activity ([18]; compound 50.0 µM): 101% | residual activity [19]: 116% | residual activity [20]: 75% | residual activity ([21]; compound 1.0 µM): 106% | residual activity ([21]; compound 10.0 µM): 101% | residual activity ([21]; compound 50.0 µM): 91% | residual activity ([22]; compound 1.0 µM): 102% | residual activity ([22]; compound 10.0 µM): 83% | residual activity ([22]; compound 50.0 µM): 75% | residual activity [23]: 107% | residual activity ([24]; compound 1.0 µM): 60% | residual activity ([24]; compound 10.0 µM): 30% | residual activity ([24]; compound 50.0 µM): 3% | residual activity ([25]; compound 1.0 µM): 106% | residual activity ([25]; compound 10.0 µM): 78% | residual activity ([25]; compound 50.0 µM): 65% | residual activity [26]: 35% | residual activity ([27]; compound 1.0 µM): 36% | residual activity ([27]; compound 10.0 µM): 10% | residual activity ([27]; compound 50.0 µM): 12% | residual activity [28]: 91% | residual activity ([29]; compound 1.0 µM): 40% | residual activity ([29]; compound 10.0 µM): 15% | residual activity ([29]; compound 50.0 µM): 1% | residual activity ([30]; compound 1.0 µM): 102% | residual activity ([30]; compound 10.0 µM): 87% | residual activity ([30]; compound 50.0 µM): 68% | residual activity [31]: 88% | residual activity [32]: 56% | residual activity ([33]; compound 1.0 µM): 94% | residual activity ([33]; compound 10.0 µM): 61% | residual activity ([33]; compound 50.0 µM): 17% | residual activity [34]: 59% | residual activity ([35]; compound 1.0 µM): 75% | residual activity ([35]; compound 10.0 µM): 73% | residual activity ([35]; compound 50.0 µM): 38%
